# Laboratory results: patent US20230416852A1, “METHODS FOR IDENTIFYING COMPOSITIONS FOR INHIBITING VIRAL INFECTIVITY” (priority 2020, published 2023)
# Where two headings read alike, the source gives them in different places.
# What was measured:
# [1] = target: T1, Vif function of inhibiting A3G CDA (Human immunodeficiency virus type 1 group M subtype B, UniProt P69723); assay: biochemical; assay type: biochemical, HIV-1; conditions: for hit for restoring A3G CDA in the presence of Vif: 10 μM compounds, 20% cutoff stringency, i.e. 20% increase in A3G CDA versus controls, positive control set as 1
# T1 sequence (P69723 whole entry): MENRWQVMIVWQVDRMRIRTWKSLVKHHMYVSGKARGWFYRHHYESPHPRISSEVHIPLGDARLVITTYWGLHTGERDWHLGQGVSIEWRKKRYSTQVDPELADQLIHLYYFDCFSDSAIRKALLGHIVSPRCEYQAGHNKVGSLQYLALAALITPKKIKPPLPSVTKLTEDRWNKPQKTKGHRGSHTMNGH
# From the text: The A3G CDA edits the CCC sequence to predominantly to a CCU sequence. To specifically measure the C to U rate, three reverse primers R1, R2, and R3 were designed in the initial study.
# Using the qPCR-based screening assay described in Example 1, the NCI Diversity Set VI, NCI Mech Set V, and NIH SMR were screened against Vif function of inhibiting A3G. The NCI Diversity Set VI was derived from almost 140,000 compounds available for distribution in the library of the NCI Developmental Therapeutics Program. […] The qPCR-based CDA assay was used to screen the libraries in 96-well plates with negative controls (no A3G and Vif), positive control (no Vif), and 10 μM compounds. Hits were selected at 20% cutoff stringency (above 0.2), i.e., 20% increase in A3G CDA versus controls. Any compounds that restored A3G activity by 20% or more were selected. The positive control was set as 1.
# [2] = target: T1, Vif function of inhibiting A3G CDA; assay type: biochemical, HIV-1
# From the text: This assay detects C to U mutation using a highly specific Stu I restriction enzyme digestion method. FIG. 4A is a schematic diagram of the PCR and restriction digestion-based CDA assay. CCC-150 is converted to CCU-150 under the enzymatic activity of A3G. […] In the presence of Vif, Vif will inhibit A3G enzymatic activity, so that reduced or no CCU-150 will be produced. Therefore, less or no Stu I cutting sites will form, and no digestion will occur.
# The CDA products were subjected to PCR followed by Stu I digestion. The digestion products were applied to a 10% polyacrylamide gel for separation. SYBR Gold was used to visualize the bands. L-Cefixime refers to Compound I identified above.
# HIV IIIB virus = assay: MAGI assay of HIV infectivity in TZM-bl cells; assay type: cell-based, HIV-1; conditions: Human immunodeficiency virus 1, IIIB, 48 h, read-out: IC50 antiviral activity
# From the text: MAGI assay is a classical method for measuring HIV infectivity (Platt E J et at J Virol 72:2855-2864 (1998)). The assay involves HIV infecting a reporter cell line, the TZM-bl cell line (Platt E J et at J Virol 72:2855-2864 (1998); Derdeyn C A et al. J Virol 74:8358-8367 (2000); Wei X et al. Antimicrob Agents Chemother 46:1896-1905 (2002)). The TZM-bl cell line is a Hela cell derivative that expresses CD4, rendering the cells permissive to HIV-1 infection. These cells also contain an integrated LTR-luciferase and β-galactosidase reporter genes, resulting in expression of firefly luciferase and β-galactosidase protein following HIV-1 integration and subsequent expression of the viral transactivator, Tat.
# 300 ng of p24 content of HIV IIIB virus was used to infect TZM-bl cells. Different doses of Compound II (redoxal) and C5 were used to treat the infected cells. DMSO treatment was used as a control. Two days post-infection, cells were fixed and β-galactosidase was stained to visualize the infected cells.
# [3] = test system: A3G expression, Gag expression and processing; assay: Western blot of A3G stability and Gag in transfected 293T cells; assay type: cell-based; conditions: 5 μM
# Procedure: (§1) An A3G expression vector was co-transfected with Vif, or with the empty vector as control. The A3G expression vector was also co-transfected with either a wild-type viral construct HXB2, Vif deficient viral construct HXB2ΔVif, or pcDNA3.1 (as a control) into 293T cells. Immediately following transfection, 5 μM Compound II (redoxal) was used to treat the 293T cells. After 48 hours post-transfection, culture supernatants were subjected to ultracentrifuge to pellet down the virus. Viral lysates were analyzed by Western blot.
# HIV in PBMC = conditions: previous report, Pery E et al. Virology 2015; cited from earlier work
# HIV IIIB replication = HIV IIIB replication in A3G-expressing CEM-GFP cells; assay type: cell-based, HIV-1; conditions: Human immunodeficiency virus 1, IIIB, FIG. 6A, read-out: IC50 inhibiting HIV IIIB replication
# Procedure: (§2) As discussed above, Vif functions as an inhibitor to A3G antiviral function. […] The A3G-dependent antiviral effects of the hits were tested using CD4+T, CEM-GFP, and CEM SS cell lines. […] The Vif specific inhibitor should show high anti-HIV potency in CEM-GFP cells (and not in CEM SS cells). The CEM-GFP cell line expresses GFP upon HIV infection driven by HIV NL4-3 LTR. It can be used to measure HIV replication (Gervaix A, et at Proc Natl Acad Sci USA. 1997; 94 (9):4653-8.)
# HIV-1 NL4-3-GFP = HIV-1 NL4-3-GFP infection of CEM SS cells (no A3G); assay type: cell-based; conditions: CEM SS cells compared to CEM-GFP cells, FIG. 6B
# Procedure: as §2
# In FIG. 6B, HIV-1 NL4-3-GFP was used to infect CEM SS cell line.
# [4] = test system: Vif induced A3G degradation; assay: Western blot of Vif induced A3G degradation in transfected 293T cells; assay type: cell-based; conditions: 5 μM, FIG. 7A
# Procedure: as §1, with “quinobene” for “Compound II (redoxal)”
# A3G viral encapsidation = assay: Western blot of A3G viral encapsidation (viral lysates from 293T cells); assay type: cell-based; conditions: 5 μM, FIG. 7B
# Procedure: as §1, with “quinobene” for “Compound II (redoxal)”
# [5] = test system: A3G related G to A hypermutation in HIV-1 viral cDNA; assay: G to A hypermutation analysis of HIV-1 viral cDNA by next-generation sequencing in SupT1 cells; assay type: cell-based; conditions: 1 μM; for average G to A hypermutation rate for each position: average over positions; for average G to A hypermutation rate for each position / G to A hypermutation rate / total G to A hypermutation rate: 6 hours, SupT1, HIV IIIB; for total G to A hypermutation rate: total over all positions
# Procedure: The hallmark of A3G antiviral function is to induce G to A hypermutation in HIV cDNA. Therefore, it is very important to evaluate whether quinobene restores A3G's capability to induce G to A hypermutation rates in HIV cDNA. To do this, SupT1 cells were infected with HIV IIIB (350 ng p24)+DMSO or HVI IIIB (350 ng p24)+1 μM quinobene for 6 hours. After infection, DNA was isolated using a DNeasy Blood and Tissue DNA isolation kit (QIAGEN). A 199-bp DNA fragment covering a portion of LTR of HIV-1 was amplified with Taq DNA polymerase using the primers IIIB-F (5′-[…]) and HIV-1-R (5′-[…]). The PCR products were purified by QIAquick PCR Purification Kit (Qiagen) and sent to GENEWIZ, Inc (South Plainfield, NJ) for G to A hypermutation analysis using their Amplicon-EZ service, a next-generation sequencing-based sequencing service, allowed detection of low-frequency variants quantitatively. The G to A hypermutation rate was calculated using CLC Genomic Workbench.
# CEM cells = assay: Presto Blue Cytotoxicity Assay; conditions: read-out: IC50 cytotoxicity, FIG. 6C
# From the text: In this assay, live cells show 586 nm fluoresce red. The higher the fluorescence, the more viable the cells are. Therefore, 100% cell death should result in no fluorescence.
# [6] = target: T1, Vif function of inhibiting A3G CDA; assay type: biochemical, HIV-1; conditions: dose-response retest in qPCR-based CDA assay
smiles,measurement,setting,value
"C=CC1=C(C(=O)O)N2C(=O)[C@@H](NC(=O)/C(=N\OCC(=O)O)c3csc(N)n3)[C@H]2SC1 [Compound I, cefixime, reference compound]",EC50,[1],> 500 µM
same,hit for restoring A3G CDA in the presence of Vif,[1],hits
same,restoration of Stu I digestion product,[2]; 10 μM,dramatically restored the digestion product
"COc1cc(-c2ccc(Nc3ccccc3C(=O)O)c(OC)c2)ccc1Nc1ccccc1C(=O)O [Compound II, redoxal]",EC50,[1],< 12.5 µM
same,hit for restoring A3G CDA in the presence of Vif,[1],hits
same,restoration of Stu I digestion product,[2]; 50 μM,dramatically restored the digestion product
same,IC50,HIV IIIB virus,< 4 µM
same,A3G expression,[3]; FIG. 8,enhances A3G expression independent of Vif
same,Gag processing patterns,[3]; FIG. 8,may alter Gag processing patterns
same,overall Gag expression,[3]; FIG. 8,reduces overall Gag expression
same,overall Gag expression,"[3]; FIG. 8, listed as redoxal",reduced overall Gag expression
same,IC50,HIV in PBMC,0.6 to 3 µM
"O=S(=O)(O)c1cc(N=Nc2cc(S(=O)(=O)O)c3cccnc3c2O)ccc1C=Cc1ccc(N=Nc2cc(S(=O)(=O)O)c3cccnc3c2O)cc1S(=O)(=O)O [Compound IX, quinobene]",hit for restoring A3G CDA in the presence of Vif,[1],hits and hit
same,restoration of Stu I digestion product,[2]; 5 uM,dramatically restored the digestion product
same,IC50,HIV IIIB replication,< 0.75 µM
same,antiviral function,HIV-1 NL4-3-GFP,lost its antiviral function
same,influence on Vif induced A3G degradation,[4],minimal to no influence
same,effects on A3G viral encapsidation,A3G viral encapsidation,minimal to no effects
same,positions showing G to A hypermutation rate increases,[5]; 22 out of 26 positions versus untreated,84.6%
same,average G to A hypermutation rate for each position,[5]; listed as Quino,2.32%
same,average G to A hypermutation rate for each position,[5]; listed as quinobene,2.31%
same,G to A hypermutation rate,[5]; position 22,5.51%
same,G to A hypermutation rate,[5]; position 23,0.27%
same,G to A hypermutation rate,[5]; position 35,1.92%
same,G to A hypermutation rate,[5]; position 36,3.87%
same,G to A hypermutation rate,[5]; position 37,0.43%
same,G to A hypermutation rate,[5]; position 47,1.84%
same,G to A hypermutation rate,[5]; position 48,0.38%
same,G to A hypermutation rate,[5]; position 51,0%
same,G to A hypermutation rate,[5]; position 56,0.53%
same,G to A hypermutation rate,[5]; position 61,6.47%
same,G to A hypermutation rate,[5]; position 62,0%
same,G to A hypermutation rate,[5]; position 65,5.65%
same,G to A hypermutation rate,[5]; position 68,0.38%
same,G to A hypermutation rate,[5]; position 71,2.13%
same,G to A hypermutation rate,[5]; position 72,2.1%
same,G to A hypermutation rate,[5]; position 73,0.28%
same,G to A hypermutation rate,[5]; position 78,0.28%
same,G to A hypermutation rate,[5]; position 126,8.57%
same,G to A hypermutation rate,[5]; position 127,0.33%
same,G to A hypermutation rate,[5]; position 136,1.39%
same,G to A hypermutation rate,[5]; position 157,8.43%
same,G to A hypermutation rate,[5]; position 158,0.19%
same,G to A hypermutation rate,[5]; position 168,0.6%
same,G to A hypermutation rate,[5]; position 177,4.16%
same,G to A hypermutation rate,[5]; position 178,2.37%
same,total G to A hypermutation rate,[5]; listed as Quino,58.08%
same,total G to A hypermutation rate,[5]; listed as quinobene,58%
same,IC50,CEM cells,~50 µM
Cn1c(SCc2ccccn2)nc2c1c(=O)[nH]c(=O)n2C [Compound VII],hit for restoring A3G CDA in the presence of Vif,[1],hits
Oc1ccccc1-c1nc2c3ccccc3c3ccccc3c2[nH]1 [Compound VI],hit for restoring A3G CDA in the presence of Vif,[1],hits
O=c1c2ccccc2ncn1-c1ccc(Cl)cc1 [Compound V],hit for restoring A3G CDA in the presence of Vif,[1],hits
"O=c1c(-c2ccc(O)cc2)coc2cc(O)cc(O)c12 [III, genistein]",hit for restoring A3G CDA in the presence of Vif,[1],hits
same,activity in retest,[6],did not show any activity
"C[C@@H]1C/C=C/C=C/C=C/C=C/[C@H](O[C@@H]2O[C@H](C)[C@@H](O)[C@H](N)[C@@H]2O)C[C@@H]2O[C@](O)(C[C@@H](O)C[C@H]3O[C@@H]3/C=C/C(=O)O1)C[C@H](O)[C@H]2C(=O)O [IV, natamycin, reference compound]",hit for restoring A3G CDA in the presence of Vif,[1],hits
same,activity in retest,[6],did not show any activity
